Values quoted from earlier work in patent US6703045B2, “Composition and method for maintaining blood glucose level” (Council of Scientific & Industrial Research, priority 2001, dated 2004).

[1] = approximate incidence in patients

Cc1cnc(C(=O)NCCc2ccc(S(=O)(=O)NC(=O)NC3CCCCC3)cc2)cn1 [Glipizide, 1-cyclohexyl-3-[[p-[2-(5-methylpyrazinecarboxamido)ethyl]phenyl]sulfonyl] urea]
incidence of constipation and gastralgia [1]: one in one hundred
incidence of nausea and diarrhea [1]: one in seventy
incidence of dizziness, drowsiness, and headache (each) (patients): about one in fifty
